Assay results reported in PMC4183567, “Cysteine Transport through Excitatory Amino Acid Transporter 3 (EAAT3)” (PLoS ONE, 2014).
Where two headings read alike, the source gives them in different places.

Experiments:
[1] = molecular target: T1, EAAT3 (Homo sapiens, UniProt P43005); test: mEGFPpH fluorescence imaging of intracellular pH in HEK293 cells co-expressing EAAT3; details: for mEGFPpH fluorescence change: EAAT3 HEK293 cells
T1 sequence (P43005 1-524): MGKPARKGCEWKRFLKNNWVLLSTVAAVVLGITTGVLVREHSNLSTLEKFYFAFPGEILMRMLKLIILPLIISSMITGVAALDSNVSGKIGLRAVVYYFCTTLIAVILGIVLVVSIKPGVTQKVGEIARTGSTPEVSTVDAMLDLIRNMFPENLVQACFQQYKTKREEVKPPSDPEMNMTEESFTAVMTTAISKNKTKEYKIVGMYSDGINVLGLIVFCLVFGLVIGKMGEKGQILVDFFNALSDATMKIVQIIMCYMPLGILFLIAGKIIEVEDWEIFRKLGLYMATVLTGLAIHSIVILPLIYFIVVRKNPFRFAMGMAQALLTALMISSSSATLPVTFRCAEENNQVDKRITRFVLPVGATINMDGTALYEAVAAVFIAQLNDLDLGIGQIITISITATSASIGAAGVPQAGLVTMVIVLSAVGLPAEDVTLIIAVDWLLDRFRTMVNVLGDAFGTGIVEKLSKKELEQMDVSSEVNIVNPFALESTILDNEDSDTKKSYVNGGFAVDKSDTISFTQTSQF
Description: (§5) Cells expressing mEGFPpH were imaged with a Zeiss Axiovert 135T inverted microscope with a 40X NeoFluar oil immersion objective (NA1.3). A Lambda DG4 (Sutter Instrument Co.) equipped with a xenon arc lamp was used for high-speed excitation wavelength switching. Images were collected using either a Quantix (Roper Scientific, Tucson, AZ) or an Orca ER (Hammamatsu Co.) cooled CCD. For pH imaging experiments, the fluorescence filters (Omega Optical) were: excitation 405±20 and 485±7.5; dichroic 400-480-585DLRP; emission 510±11.5. Software control and data acquisition were accomplished using Axon Imaging Workbench (INDEC Biosystems) or OpenLab acquisition software (Improvision, Perkin Elmer). Cells were incubated at room temperature with continuous perfusion using standard buffer containing (in mM): 146 NaCl, 5 KCl, 5 HEPES, 2.5 CaCl2 and 1.2 MgCl2 at pH 7.35 with additions (substrates etc.) as indicated in figure legends. Acquisition exposure times were identical for both 405 nm and 485 nm excitation wavelengths adjusted so that the 510 emission was not saturated for either excitation wavelength. Prior to perfusion with buffers containing substrates, cells were perfused in standard buffer to achieve a stable base line. Fluorescence was reported as the ratio of fluorescence at 510 nm by excitation with 485 and 405 nm wavelengths (F485/F405).

[2] = system: HEK293 cells
Description: Cells expressing mEGFPpH were imaged with a Zeiss Axiovert 135T inverted microscope with a 40X NeoFluar oil immersion objective (NA1.3). A Lambda DG4 (Sutter Instrument Co.) equipped with a xenon arc lamp was used for high-speed excitation wavelength switching. Images were collected using either a Quantix (Roper Scientific, Tucson, AZ) or an Orca ER (Hammamatsu Co.) cooled CCD. For pH imaging experiments, the fluorescence filters (Omega Optical) were: excitation 405±20 and 485±7.5; dichroic 400-480-585DLRP; emission 510±11.5. Software control and data acquisition were accomplished using Axon Imaging Workbench (INDEC Biosystems) or OpenLab acquisition software (Improvision, Perkin Elmer). […] Fluorescence was reported as the ratio of fluorescence at 510 nm by excitation with 485 and 405 nm wavelengths (F485/F405).
For NH4Cl experiments, HEK293 cells expressing mEGFPpH were perfused with buffer to establish a stable fluorescence baseline, followed by perfusion with buffer containing 50 mM NH4Cl substituted for 50 mM NaCl, followed by NH4Cl washout with standard buffer as indicated. Calibration of fluorescence ratio changes with intracellular pH was accomplished following the NH4Cl experiments, by perfusion of the cells with standard buffer containing 10 µM each of nigericin and valinomycin at the following pH: 6.5, 7.35, 7.5, 7.75, 8, 8.5. […]

[3] = molecular target: T2, EAAT3 and ASCT1 (Homo sapiens, UniProt P43005); test: Release of preloaded [35S]-L-cysteine from Xenopus oocytes co-expressing EAAT3 and ASCT1; type: cell-based
T2 construct: expressed in transfected cells; host or cells: Xenopus oocytes
T2 sequence (P43005 1-524): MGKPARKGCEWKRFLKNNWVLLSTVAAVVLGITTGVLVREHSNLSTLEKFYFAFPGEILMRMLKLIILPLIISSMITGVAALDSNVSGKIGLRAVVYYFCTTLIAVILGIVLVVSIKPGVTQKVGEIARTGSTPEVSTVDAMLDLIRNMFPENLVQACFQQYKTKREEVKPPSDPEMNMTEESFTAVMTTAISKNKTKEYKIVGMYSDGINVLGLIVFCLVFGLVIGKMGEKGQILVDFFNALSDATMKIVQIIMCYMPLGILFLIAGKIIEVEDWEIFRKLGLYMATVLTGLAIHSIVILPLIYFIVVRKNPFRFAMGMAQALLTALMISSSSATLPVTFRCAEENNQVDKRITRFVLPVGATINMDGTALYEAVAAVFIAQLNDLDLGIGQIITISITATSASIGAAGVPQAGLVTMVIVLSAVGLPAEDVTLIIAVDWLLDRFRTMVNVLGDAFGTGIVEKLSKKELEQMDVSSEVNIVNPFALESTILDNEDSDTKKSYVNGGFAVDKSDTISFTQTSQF
Method: (§1) mRNA from linearized pOTV-EAAT1, pOTV-EAAT2 and pOTV-EAAT3 was generated as previously described and resuspended in RNAase-free water and used for oocytes injections.
(§2) Oocytes were washed 3 times in ND96 buffer followed by incubation for 10 min with non-radiolabeled substrates as indicated. The supernatant was removed and collected for scintillation counting, while the oocytes were lysed in 1% sodium dodecylsulfate (SDS). The oocytes lysate and supernatant were counted separately by liquid scintillation counting to determine both retained and released radioactivity respectively. Percent of released radioactivity was determined as a function of the released/(retained + released).

[4] = molecular target: T2, EAAT3 and ASCT1; test: Release of preloaded [3H]-L-glutamate from Xenopus oocytes co-expressing EAAT3 and ASCT1; type: cell-based
Method: (§3) mRNA from linearized pOTV-EAAT1, pOTV-EAAT2 and pOTV-EAAT3 was generated as previously described and resuspended in RNAase-free water and used for oocytes injections. Xenopus oocytes where injected with 50 nl of mRNA and incubated at 18°C in 96 mM NaCl, 2 mM KCl, 1.8 mM CaCl2, 1.0 mM MgCl2, 5 mM HEPES, pH 7.4 (ND96) supplemented with 2.5 mM Sodium Pyruvate and Gentamicyn for 2 to 3 days prior to using in electrophysiological recordings and radio-labeled transport experiments.
as §2

[5] = system: EAATs; details: very low affinity; cited from earlier work
[6] = molecular target: T1, EAAT3; test: Substrate-gated anion (NO3) currents in Xenopus oocytes expressing EAAT3; type: cell-based; details: 1 mM substrate; for average anion current amplitude at +60 mV: NaNO3, oocytes expressing EAAT3 alone, Figure 7C, n = 6
Method: as §3
(§4) Oocytes were held at −60 mV, and currents elicited by 200 ms voltage steps between −120 mV and +60 mV were filtered at 2 kHz (−3dB) and digitalized with a sampling rate of 10 kHz using a Digidata AD/DA converter (Molecular Devices, Sunnyvale, CA, USA). Borosilicate pipets where filled with 3 M KCl and typical resistances where 0.2 to 1 MΩ. Transport currents were determined at −60 mV in a gluconate-based ND96 solution. In order to dialyze internal chloride, oocytes were incubated 12 to 24 hours in the gluconate solution. Anion currents were determined at positive potentials (+60 mV) after exchanging the external solution to NO3-based ND96 (replacement of 96 mM NaCl with 96 mM NaNO3) solution in the absence or in the presence of 1 mM external substrates. In experiments using cysteine as a substrate, all solutions contained 2 mM dithiothreitol (DTT). Data were analyzed with a combination of pClamp 9.2 (Axon Instrument) and Sigma Plot (Jandel Scientific, San Rafael, CA, USA). Whole cell current amplitudes are shown without any subtraction protocol. Current-voltage relationships were constructed by plotting the isochronal current 6 ms after the voltage step versus the membrane potential. All data are given as the mean ± standard deviation of the mean (SDM). For evaluation the statistical relevance, the Student’s t-Test was used with an α of 0.05.

[7] = system: EAAT3 and ASCT1; test: Substrate-gated NO3 currents in Xenopus oocytes co-expressing EAAT3 and ASCT1; type: cell-based, human; details: 1 mM substrate, oocytes co-expressing EAAT3 and ASCT1, n = 4
Method: as §3
as §4, with “In experiments using cysteine as a substrate, all solutions contained 2 mM dithiothreitol (DTT).” left out, “Whole cell current amplitudes are shown without any subtraction protocol. Current-voltage relationships were constructed by plotting the isochronal current 6 ms after the voltage step versus the membrane potential. All data are given as the mean ± standard deviation of the mean (SDM). For evaluation the statistical relevance, the Student’s t-Test was used with an α of 0.05.” left out

[8] = molecular target: T1, EAAT3; test: Glutamate inhibition of [35S]-L-cysteine uptake in Xenopus oocytes expressing EAAT3; type: cell-based; set-up: expressed in transfected cells; host or cells: HEK293
Method: as §3
Cysteine transport was measured for 10 min in Xenopus oocytes with serial dilution of a mixture of 10 mM cysteine and 20 nM [^35S]-L-cysteine in ND96. Transport was terminated by three washes of ND96, after which accumulated radiolabel was quantitated by liquid scintillation counting. […] Transport was terminated by three washes in ND96 followed by liquid scintillation counting.

[9] = molecular target: EAAT2 (Homo sapiens, UniProt P43004); test: mEGFPpH fluorescence imaging of intracellular pH in HEK293 cells co-expressing EAAT2; type: cell-based; set-up: expressed in transfected cells; host or cells: HEK293; details: 1 mM perfusion
EAAT2, sequence (P43004 whole entry, the tested form may be a part): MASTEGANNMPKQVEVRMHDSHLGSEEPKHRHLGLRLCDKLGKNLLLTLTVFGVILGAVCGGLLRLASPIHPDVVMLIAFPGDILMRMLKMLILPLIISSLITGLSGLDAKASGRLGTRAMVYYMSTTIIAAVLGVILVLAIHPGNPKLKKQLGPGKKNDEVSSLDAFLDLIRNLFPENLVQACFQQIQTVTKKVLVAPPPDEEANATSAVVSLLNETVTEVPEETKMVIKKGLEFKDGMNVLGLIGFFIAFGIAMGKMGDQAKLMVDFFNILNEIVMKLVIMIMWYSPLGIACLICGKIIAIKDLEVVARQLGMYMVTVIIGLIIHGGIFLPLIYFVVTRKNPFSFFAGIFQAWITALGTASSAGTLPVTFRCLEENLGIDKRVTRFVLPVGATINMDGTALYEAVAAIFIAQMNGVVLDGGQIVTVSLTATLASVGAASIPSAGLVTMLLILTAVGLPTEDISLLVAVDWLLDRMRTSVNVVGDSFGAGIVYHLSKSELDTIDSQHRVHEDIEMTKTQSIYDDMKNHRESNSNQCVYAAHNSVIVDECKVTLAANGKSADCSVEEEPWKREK
Description: as §5

[10] = system: EAAT3 and ASCT1; test: Release of preloaded [35S]-L-cysteine from Xenopus oocytes co-expressing EAAT3 and ASCT1; type: cell-based, human; details: 10 min
Method: as §1, §2

[11] = substrate: N[C@@H](CCC(=O)O)C(=O)O; test: cells, lysate or membranes; details: other: slope normalized to 1 mM glutamate, 0.5 µM to 2 mM glutamate; pH 7.35; 37.0 °C
[12] = substrate: N[C@@H](C[SeH])C(=O)O; test: Two-electrode voltage clamp transport currents in Xenopus oocytes expressing EAAT3; type: cell-based, human; details: other: -60 mV, normalized transport current vs concentration, n = 6; pH 7.4; 18.0 °C
Method: as §3
as §4, with “In experiments using cysteine as a substrate, all solutions contained 2 mM dithiothreitol (DTT).” left out, “Whole cell current amplitudes are shown without any subtraction protocol. Current-voltage relationships were constructed by plotting the isochronal current 6 ms after the voltage step versus the membrane potential. All data are given as the mean ± standard deviation of the mean (SDM). For evaluation the statistical relevance, the Student’s t-Test was used with an α of 0.05.” left out

[13] = substrate: N[C@@H](CCC(=O)O)C(=O)O; test: cells, lysate or membranes; type: cell-based, human; details: other: similarly transfected HEK293 cells
Method: For radiolabeled transport experiments, 2×10^6 cells were transfected in 1 mL of Opti-Mem (Life Technologies) using 6 µL of Lipofectamine 2000 (Invitrogen) with 1 µg pCMV-EAAT2 or pCMV-EAAT3 DNA and plated at 5×10^4 cells/well in 24 well Costar (Corning) plates with 0.5 mL DMEM culture media prepared as above. Following transfection and plating, cells were cultured 2–3 days prior to [^3H]-L-Glutamate transport experiments.

## N[C@H](CC(=O)O)C(=O)O [D-aspartate]
[1]; 100 µM perfusion
  mEGFPpH fluorescence change: fluorescence decrease similar to that observed for 100 µM glutamate

## Cl.N [NH4Cl]
[2]; after NH4Cl washout
  average intracellular pH (pHi): ~6.5
[2]; during 50 mM NH4Cl perfusion, initial pHi ~7.4, n = 4
  average intracellular pH (pHi): ~8.5

## N[C@H](C(=O)O)[C@H](OCc1ccccc1)C(=O)O [TBOA]
[3]; TBOA co-incubation
  effect on [35S]-L-cysteine release in presence of 100 µM glutamate: not significantly inhibited
  effect on [35S]-cysteine release induced by 300 µM cysteine: not inhibited
[4]; TBOA co-application, data not shown
  effect on [3H]-L-glutamate release induced by K+ containing buffer: blocking this release
[4]; TBOA co-incubation
  effect on [3H]-L-glutamate release induced by 100 µM L-glutamate: blocked
  effect on [3H]-L-glutamate release induced by cysteine: blocked
[1]; 100 µM TBOA co-applied with 1 mM cysteine
  effect on cysteine-induced mEGFPpH fluorescence increase: blocked
[1]; co-application with glutamate, data not shown
  effect on glutamate-induced mEGFPpH fluorescence changes: blocked

## C[C@H](N)C(=O)O [alanine]
[5]
  affinity for the transporters: > 1 mM

## N[C@@H](CCC(=O)O)C(=O)O [glutamate, L-glutamate]
[6]; NO3-based solution, Figure 2C, n = 4
  anion current amplitude at +60 mV: 1.78±0.4 µA
[6]
  average anion current amplitude at +60 mV: 2.2±0.12 µA
[3]; 100 µM extracellular substrate, 10 min
  release of preloaded [35S]-L-cysteine: less than 2%
[4]; 100 µM extracellular substrate
  release of loaded [3H]-L-glutamate: 5%
[7]
  macroscopic anion current amplitude at +60 mV: 1.1±0.1 µA
[8]; pH 6.9, read-out: inhibition of cysteine transport
  inhibition at 100 µM: 40%
[8]; pH 6.9, read-out: inhibition of cysteine uptake
  inhibition at 100 µM: ~75%
[9]
  mEGFPpH fluorescence change: significant quench of mEGFPpH fluorescence
[1]; 0.5 µM perfusion
  mEGFPpH fluorescence change: no observable fluorescence changes from baseline
[1]; 1 mM perfusion
  mEGFPpH fluorescence change: fluorescence decrease

## N[C@@H](CO)C(=O)O [serine, L-serine]
[6]
  average anion current amplitude at +60 mV: 0.60±0.05 µA
[10]; 300 µM extracellular substrate
  release of preloaded [35S]-L-cysteine: 10%
[10]; 1 mM extracellular substrate
  release of preloaded [35S]-L-cysteine: 20%
[4]; 1 mM extracellular substrate, data not shown
  release of loaded [3H]-L-glutamate: did not induce significant release
[7]
  macroscopic anion current amplitude at +60 mV: 0.6±0.07 µA
[5]
  affinity for the transporters: > 1 mM

B1: EAAT3 (Homo sapiens) (protein)
chain: MGKPARKGCEWKRFLKNNWVLLSTVAAVVLGITTGVLVREHSNLSTLEKFYFAFPGEILMRMLKLIILPLIISSMITGVAALDSNVSGKIGLRAVVYYFCTTLIAVILGIVLVVSIKPGVTQKVGEIARTGSTPEVSTVDAMLDLIRNMFPENLVQACFQQYKTKREEVKPPSDPEMNMTEESFTAVMTTAISKNKTKEYKIVGMYSDGINVLGLIVFCLVFGLVIGKMGEKGQILVDFFNALSDATMKIVQIIMCYMPLGILFLIAGKIIEVEDWEIFRKLGLYMATVLTGLAIHSIVILPLIYFIVVRKNPFRFAMGMAQALLTALMISSSSATLPVTFRCAEENNQVDKRITRFVLPVGATINMDGTALYEAVAAVFIAQLNDLDLGIGQIITISITATSASIGAAGVPQAGLVTMVIVLSAVGLPAEDVTLIIAVDWLLDRFRTMVNVLGDAFGTGIVEKLSKKELEQMDVSSEVNIVNPFALESTILDNEDSDTKKSYVNGGFAVDKSDTISFTQTSQF
notes: expressed in transfected cells; host or cells: HEK293
[11]
  Km: 30 µM
[12]
  Km: 7.14 ± 0.3 µM
[13]
  Km: 70 µM
